The source of these data is US6767738B1, “Method of isolating adult mammalian CNS-derived progenitor stem cells using density gradient centrifugation” (The Salk Institute for Biological Studies, priority 1999, dated 2004).

Assay [1] deals with c-fos mRNA (Trk receptor tyrosine kinase signaling). Kind of assay: RT-PCR analysis of neurotrophin-dependent c-fos induction. The class given is cell-based, rat. The conditions noted are these: pretreatment with RA for 6 days. How it is done: Cell Culture. For proliferating conditions, clonal stem cells (AP14) were cultured in Dulbecco's Modified Eagles Medium/Ham's F12 (DMEM/F12, 1:1) containing N2 supplement (Gibco BRL, Gaithersburg, Md.) and 20 ng/ml rhFGF-2 (provided by A. Baird, Prizm Pharmaceuticals Inc., La Jolla, Calif.). Culture dishes (Becton Dickinsin Labware, Lincoln Park, N.J.) were coated with polyomithine and mouse laminin as previously described by Ray, et al., Proliferation, differentiation and long-term culture of primary hippocampal neurons, Proc Natl Acad Sci USA 90:3602-3606 (1993). For differentiation experiments, cells were plated into polyornithine/laminin coated glass chamber slides (Nunc, Naperville, Ill.) at a density of 2.5—103 per cm2. The cells were incubated for 24 hrs in normal N2 medium containing 20 ng/ml FGF-2, and then the medium was replaced by N2 medium containing 0.5% […] (FBS) and 0.01% DMSO (control solvent) or […] all-trans retinoic acid (Sigma, St. Louis, Mo.). For further differentiation, the medium was replaced by N2 medium containing 0.5% FBS and one of the following: sterile water (control solvent), mouse 2.55 NGF (50 ng/ml, Boehringer Mannheim, Indianapolis, Ind.), rhBDNF (20 ng/ml, Alomone Labs, Jerusalem, Israel), rhNT-3 (40 ng/ml, Genentech, South San Francisco, Calif.). The medium was replaced every two days. For inhibition of the tyrosine kinase activity of the Trk receptors, K-252a (100 nM, Calbiochem, San Diego, Calif.) was added to the medium.
Reverse Transcription-PCR Analysis. Total RNA from stem cells was isolated using RNeasy Total RNA Kits (Qiagen, Chatsworth, Calif.) according to manufacturer's instructions. Fifty nanograms of total RNA was reverse transcribed using avian myeloblastosis virus reverse transcriptase (Promega, Madison, Wis.) with random hexamers ([…]) as primers in a […] reaction mixture. For PCR amplification, two sets of specific oligonucleotide pairs ([…]) were used: one directed to the transcript of interest, and one for a constitutively expressed transcript, either ribosomal protein L27 or L27a. Reactions were performed in a […] reaction mixture containing 10 mM Tris-Cl (pH 8.4), 50 mm KCl, 1.5 mM MgC12, […] each of the four dNTPs, 2 mCi of [a-32P]dCTP and 5 units of Taq polymerase (Promega) using a thermal cycler (Perkin-Elmer, Foster City, Calif.) with a regimen of 1 min at 94° C., 2 min at 60° C. (55° C. for trk receptors) and 2 min at 72° C. for 23 cycles Fifty microliters of each reaction was analyzed by electrophoresis on 8% polyacrylamide gels followed by autoradiography. […] Under these conditions, the L27 amplification product was directly proportional to the amount of input RNA, up to 50 ng total RNA. Oligonucleotide primers used are as follows: […]
RA treatment also results in neurotrophin-dependent induction of c-fos. Transient and rapid induction of immediate early genes such as c-fos is a well-characterized response to extracellular stimuli in neural cells. c-fos is induced after neurotrophin treatment in cultured […] hippocampal or cortical cells and the signaling cascade following c-fos induction is considered to be integral to subsequent steps in differentiation. To determine whether upregulation of mRNAs for trk receptors and p75NGFR observed in the stem cell cultures results in the acquisition of functional Trk-dependent stimulation of c-fos, mRNA was examined by RT-PCR analysis after stimulating RA-treated cells with neurotrophins. […]

Assay [2] deals with low buoyancy fraction cells from hippocampus or cortex. Kind of assay: Proliferation of low buoyancy hippocampus or cortex cells in growth medium. The class given is cell-based, rat. Conditions: 20 ng/ml FGF-2, after 10 days. The source says: Tissue dissociation and fractionation: Tissues were finely minced and digested in a solution of papain (2.5 U/ml, Worthington), DNAse (250 U/ml, Worthington), and neutral protease (1 U/ml Dispase, Boehringer) dissolved in Hanks balanced salt solution, as described in Palmer T D, Ray J, Gage F H (1995), FGF-2-Responsive Neuronal Progenitors Reside in Proliferative and Quiescent Regions of the Adult Rodent Brain. Mol Cell Neurosci 6:474-486; and Gage F H, Coates P W, Palmer T D, Kuhn H G, Fisher L J, Suhonen J O, Peterson D A, Suhr S T, Ray J (1995), Survival and differentiation of adult neuronal progenitor cells transplanted to the adult brain. Proc Natl Acad Sci USA 92:11879-11883. Cells and tissue fragments were washed 3 times with Dulbecco's Modified Eagles Medium (DMEM) containing 10% […] bovine serum (defined FBS, Hyclone). Whole digested tissue was then suspended in DMEM 10% FBS, filtered through a sterile 107 μm nylon mesh and thoroughly mixed with an equal volume of PERCOLL™ (polyvinylpyrrolidone-coated silica colloids) solution. […]
Although BrdU-labeled cells fractionated to the low buoyancy population, most of the isolated cells were unlabeled, consistent with the isolation of immature, yet relatively quiescent precursors. […] Cell division was monitored by counting cells and by treating replicate cultures with BrdU at different times post plating. […]

With `CC1=C(/C=C/C(C)=C/C=C/C(C)=C/C(=O)O)C(C)(C)CCC1` [RA, all-trans retinoic acid], the “baseline expression of c-fos mRNA” value in assay [1] is on record as “increased”.
On to “FGF-2: basic fibroblast growth factor, human recombinant, prepared in E. coli”, for which, in assay [2], the “cells dividing in a given 24-hour period” value is reported as “roughly 85%” and the “cells labeled following a 48 hour exposure to BrdU” value is > 99%.
